In patent publication US7935670B2, “Hepatitis C virus inhibitors” (Bristol-Myers Squibb Company, priority 2006, dated 2011) one finds IC50 and EC50 data, which are given here for six molecules.

The target in experiment [1] is T1, HCV NS3/4A protease complex, BMS strain (UniProt P27958, species not given/STRAIN_BMS).
T1 construct: given for H77 and J4L6S, not expressly for BMS; fused on or other part: three-lysine solubilising tail at the end of NS4A (given for the H77 and J4L6S constructs)
Put plainly: FRET peptide assay to monitor HCV NS3/4A proteolytic activity (BMS strain). Format: biochemical, HCV genotype 1a. Particulars: NS3/4A BMS strain; read-out: Activity Range (IC50). An excerpt: HCV NS3 protease complexes, derived from the BMS strain, H77 strain or J4L6S strain, were generated, as described below. These purified recombinant proteins were generated for use in a homogeneous assay (see below) to provide an indication of how effective compounds of the present disclosure would be in inhibiting HCV NS3 proteolytic activity.
Serum from an HCV-infected patient was obtained from Dr. T. Wright, San Francisco Hospital. An engineered full-length cDNA (compliment deoxyribonucleic acid) template of the HCV genome (BMS strain) was constructed from DNA fragments obtained by reverse transcription-PCR(RT-PCR) of serum RNA (ribonucleic acid) and using primers selected on the basis of homology between other genotype 1a strains. From the determination of the entire genome sequence, a genotype 1a was assigned to the HCV isolate according to the classification of Simmonds et al. (See P Simmonds, K A Rose, S Graham, S W Chan, F McOmish, B C Dow, E A Follett, P L Yap and H Marsden, J. Clin. Microbiol., 31(6), 1493-1503 (1993)). […] The infectious clones, H77 (1a genotype) and J4L6S (1b genotype) were obtained from R. Purcell (NIH) and the sequences are published in Genbank (AAB67036, see Yanagi, M., Purcell, R. H., Emerson, S. U. and Bukh, J. Proc. Natl. Acad. Sci. U.S.A. 94(16), 8738-8743 (1997); AF054247, see Yanagi, M., St Claire, M., Shapiro, M., Emerson, S. U., Purcell, R. H. and Bukh, J, Virology 244 (1), 161-172. (1998)).
NS3/4A protease complex-containing fractions were pooled and loaded on a desalting column Superdex-S200 pre-equilibrated with buffer D (25 mM HEPES, pH 7.5, 20% glycerol, 300 mM NaCl, 0.2% Triton X-100, 10 mM βME). Sample was loaded at a flow rate of 1 mL/min. NS3/4A protease complex-containing fractions were pooled and concentrated to approximately 0.5 mg/ml. The purity of the NS3/4A protease complexes, derived from the BMS, H77 and J4L6S strains, were judged to be greater than 90% by SDS-PAGE and mass spectrometry analyses. The enzyme was stored at −80° C., thawed on ice and diluted prior to use in assay buffer.
The purpose of this in vitro assay was to measure the inhibition of HCV NS3 protease complexes, derived from the BMS strain, H77 strain or J4L6S strain, as described above, by compounds of the present disclosure. This assay provides an indication of how effective compounds of the present disclosure would be in inhibiting HCV NS3 proteolytic activity.
In order to monitor HCV NS3/4A protease activity, an NS3/4A peptide substrate was used. The substrate was RET S1 (Resonance Energy Transfer Depsipeptide Substrate; AnaSpec, Inc. cat #22991)(FRET peptide), described by Taliani et al. in Anal. Biochem. 240(2):60-67 (1996). The sequence of this peptide is loosely based on the NS4A/NS4B natural cleavage site for the HCV NS3 protease except there is an ester linkage rather than an amide bond at the cleavage site. The peptide also contains a fluorescence donor, EDANS, near one end of the peptide and an acceptor, DABCYL, near the other end. The fluorescence of the peptide is quenched by […] resonance energy transfer (RET) between the donor and the acceptor, but as the NS3 protease cleaves the peptide the products are released from RET quenching and the fluorescence of the donor becomes apparent.
The peptide substrate was incubated with one of the three recombinant NS3/4A protease complexes, in the absence or presence of a compound of the present disclosure. The inhibitory effects of a compound were determined by monitoring the formation of fluorescent reaction product in real time using a Cytofluor Series 4000.
Assay buffer: 50 mM HEPES, pH 7.5; 0.15 M NaCl; 0.1% Triton; 15% Glycerol; 10 mM βME. Substrate: 2 μM final concentration (from a 2 mM stock solution in DMSO stored at −20° C.). HCV NS3/4A protease type 1a (1b), 2-3 nM final concentration (from a 5 μM stock solution in 25 mM HEPES, pH 7.5, 20% glycerol, 300 mM NaCl, 0.2% Triton-X100, 10 mM βME). […]

Experiment [2] concerns HCV replicon in HUH-7 cells. The experiment can be described thus: HCV replicon FRET assay. Particulars: Hepatitis C virus, Huh-7, read-out: Activity Range (EC50). Format: cell-based, HCV strain 1b. From the text:
An HCV replicon whole cell system was established as described by Lohmann V, Korner F, Koch J, Herian U, Theilmann L, Bartenschlager R., Science 285(5424): 110-3 (1999). This system enabled us to evaluate the effects of our HCV Protease compounds on HCV RNA replication. Briefly, using the HCV strain 1b sequence described in the Lohmann paper (Assession number: AJ238799), an HCV cDNA was synthesized by Operon Technologies, Inc. (Alameda, Calif.), and the full-length replicon was then assembled in plasmid pGem9zf(+) (Promega, Madison, Wis.) using standard molecular biology techniques. The replicon consists of (i) the HCV 5′ UTR fused to the first 12 amino acids of the capsid protein, (ii) the neomycin phosphotransferase gene (neo), (iii) the IRES from encephalomyocarditis virus (EMCV), and (iv) HCV NS3 to NS5B genes and the HCV 3′ UTR. Plasmid DNAs were linearized with ScaI and RNA transcripts were synthesized in vitro using the T7 MegaScript transcription kit (Ambion, Austin, Tex.) according to manufacturer's directions. In vitro transcripts of the cDNA were transfected into the human hepatoma cell line, HUH-7. […] Resulting cell lines were characterized for positive and negative strand RNA production and protein production over time.
The HCV replicon FRET assay was developed to monitor the inhibitory effects of compounds described in the disclosure on HCV viral replication. HUH-7 cells, constitutively expressing the HCV replicon, were grown in Dulbecco's Modified Eagle Media (DMEM) (Gibco-BRL) containing 10% Fetal calf serum (FCS) (Sigma) and 1 mg/ml G418 (Gibco-BRL). Cells were seeded the night before (1.5×10^4 cells/well) in 96-well tissue-culture sterile plates. Compound and no compound controls were prepared in DMEM containing 4% FCS, 1:100 Penicillin/Streptomysin (Gibco-BRL), 1:100 L-glutamine and 5% DMSO in the dilution plate (0.5% DMSO final concentration in the assay). Compound/DMSO mixes were added to the cells and incubated for 4 days at 37° C. After 4 days, cells were first assessed for cytotoxicity using alamar Blue (Trek Diagnotstic Systems) for a CC50 reading. The toxicity of compound (CC50) was determined by adding 1/10th volume of alamar Blue to the media incubating the cells. After 4 h, the fluorescence signal from each well was read, with an excitation wavelength at 530 nm and an emission wavelength of 580 nm, using the Cytofluor Series 4000 (Perspective Biosystems). Plates were then rinsed thoroughly with Phosphate-Buffered Saline (PBS) (3 times 150 μl). The cells were lysed with 25 μl of a lysis assay reagent containing an HCV protease substrate (5× cell Luciferase cell culture lysis reagent (Promega #E153A) diluted to 1× with distilled water, NaCl added to 150 mM final, the FRET peptide substrate (as described for the enzyme assay above) diluted to 10 μM final from a 2 mM stock in 100% DMSO. The plate was then placed into the Cytofluor 4000 instrument which had been set to 340 nm excitation/490 nm emission, automatic mode for 21 cycles and the plate read in a kinetic mode. EC50 determinations were carried out as described for the IC50 determinations.

T1 sequence (P27958 1027-1657, change not shown, one chain of several): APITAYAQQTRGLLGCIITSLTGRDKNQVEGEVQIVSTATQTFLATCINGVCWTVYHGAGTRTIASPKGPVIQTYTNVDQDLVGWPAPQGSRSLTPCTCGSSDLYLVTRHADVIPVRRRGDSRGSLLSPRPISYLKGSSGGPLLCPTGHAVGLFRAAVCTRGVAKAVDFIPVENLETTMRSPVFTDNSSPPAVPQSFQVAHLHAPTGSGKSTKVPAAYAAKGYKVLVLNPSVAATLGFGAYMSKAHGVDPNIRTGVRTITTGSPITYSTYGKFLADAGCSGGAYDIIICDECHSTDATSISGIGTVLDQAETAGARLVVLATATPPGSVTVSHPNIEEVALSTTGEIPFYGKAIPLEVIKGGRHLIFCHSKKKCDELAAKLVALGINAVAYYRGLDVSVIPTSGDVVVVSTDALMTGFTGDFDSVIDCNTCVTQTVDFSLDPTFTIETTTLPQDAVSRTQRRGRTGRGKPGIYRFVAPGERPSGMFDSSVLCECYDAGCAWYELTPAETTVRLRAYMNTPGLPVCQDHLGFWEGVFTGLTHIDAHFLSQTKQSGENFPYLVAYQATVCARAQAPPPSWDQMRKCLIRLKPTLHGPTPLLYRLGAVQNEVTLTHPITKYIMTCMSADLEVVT

For `C=C[C@@H]1C[C@]1(NC(=O)[C@@H]1C[C@@H](OC(=O)c2ccc(F)cc2)CN1C(=O)[C@@H](NC(=O)OC(C)(C)C)C(C)(C)C)C(=O)NS(=O)(=O)C1CC1` [Compound 2], the half-maximal inhibitory concentration (IC50) in experiment [1] was in the range of 1 to 50 nM. Besides, in experiment [2], the concentration giving a half-maximal response (EC50) was 200 to 1000 nM.

As to `C=C[C@@H]1C[C@]1(NC(=O)[C@@H]1C[C@@H](OC(=O)c2ccc(OC)cc2)CN1C(=O)[C@@H](NC(=O)OC(C)(C)C)C(C)(C)C)C(=O)NS(=O)(=O)C1CC1` [Compound 3], in experiment [1], the IC50 fell in the range of 1 to 50 nM. The EC50 in experiment [2] was 25 to 200 nM.

Consider `C=C[C@@H]1C[C@]1(NC(=O)[C@@H]1C[C@@H](OC(=O)c2ccc(-c3ccccc3)cc2)CN1C(=O)[C@@H](NC(=O)OC(C)(C)C)C(C)(C)C)C(=O)NS(=O)(=O)C1CC1` [Compound 4], for which, in experiment [1], the 50% inhibitory concentration (IC50) was 1 to 50 nM. For the same molecule, the EC50 in experiment [2] fell in the range of 200 to 1000 nM.

Consider `C=C[C@@H]1C[C@]1(NC(=O)[C@@H]1C[C@@H](OC(=O)c2ccc3ncccc3c2)CN1C(=O)[C@@H](NC(=O)OC(C)(C)C)C(C)(C)C)C(=O)NS(=O)(=O)C1CC1` [Compound 5], for which, in experiment [1], the 50% inhibitory concentration (IC50) was in the range of 1 to 50 nM. Further, the EC50 in experiment [2] lay in the range of 25 to 200 nM.

Take `C=C[C@@H]1C[C@]1(NC(=O)[C@@H]1C[C@@H](OC(=O)c2ccc3sccc3c2)CN1C(=O)[C@@H](NC(=O)OC(C)(C)C)C(C)(C)C)C(=O)NS(=O)(=O)C1CC1` [Compound 6]: the half-inhibitory concentration (IC50) in experiment [1] is 1 to 50 nM. Besides, the EC50 in experiment [2] is 25 to 200 nM.

Regarding `C=C[C@@H]1C[C@]1(NC(=O)[C@@H]1C[C@@H](OC(=O)c2ccc3c(c2)CCO3)CN1C(=O)[C@@H](NC(=O)OC(C)(C)C)C(C)(C)C)C(=O)NS(=O)(=O)C1CC1` [Compound 7], in experiment [1], the IC50 was 1 to 50 nM. Besides, in experiment [2], the 50% effective concentration (EC50) fell in the range of 25 to 200 nM.
